In ChEMBL document CHEMBL5696439 (Cancer Res, 2010):
Activity calls are given as the source filed them. The rule behind the calls is not given here.

How the values were obtained:
[1] = molecular target: Dual specificity tyrosine-phosphorylation-regulated kinase 1A (Homo sapiens) (UniProt Q13627); assay: Inhibition of recombinant human full-length GST-tagged DYRK1A expressed in insect cells at 2 uM using Ser/Thr 18 as substrate measured after 1 hr by Z'-LYTE assay relative to control; details: Insect cell
[2] = molecular target: Ephrin type-B receptor 4 (Homo sapiens) (UniProt P54760); assay: Inhibition of recombinant human His-tagged EPHB4 (561-987 residues) expressed in baculovirus expression system at 2 uM using Tyr 01 as substrate measured after 1 hr by Z'-LYTE assay relative to control
[3] = system: MDA-MB-361; assay: Antitumor activity against human MDA-MB-361 cells assessed as reduction in oxygen consumption rate at 1 micromol/L incubated for 1 hrs relative to control; assay type: functional; design: scale not given: the % may be the effect or the level left; details: dose 1 µmol/L, at 1 µM
[4] = molecular target: Dual specificity protein kinase CLK2 (Homo sapiens) (UniProt P49760); assay: Inhibition of recombinant human GST-tagged CLK2 (137-498 residues) expressed in insect cells at 2 uM using Ser/Thr 06 as substrate measured after 1 hr by Z'-LYTE assay relative to control; details: Insect cell
[5] = system: Mast/stem cell growth factor receptor Kit (Homo sapiens), P10721 [T670I]; assay: Inhibition of recombinant human His-tagged KIT T670I mutant (544-976 residues) expressed in insect cells at 2 uM using […] as substrate measured after 1 hr by Z'-LYTE assay relative to control
[6] = system: MDA-MB-361; assay: Induction of apoptosis in HER2 hyperactive human MDA-MB-361 cells assessed as cell death at 0.001 to 100 micromol/L incubated for 24 hrs by FACS analysis; assay type: functional, cell-based; details: dose 0.001-100 µmol/L
[7] = system: HT-29; assay: Antitumor activity against human HT-29 cells xenografted in female nude mouse model assessed as suppression in P-S6K at T389 level at 50 mg/kg, iv administered once a week and measured at least 8 hrs by immunoblot analysis; assay type: functional, organism-based
[8] = molecular target: Serine/threonine-protein kinase D2 (Homo sapiens) (UniProt Q9BZL6); assay: Inhibition of recombinant human full length GST-tagged PRKD2 expressed in insect cells at 2 uM using Ser/Thr 17 as substrate measured after 1 hr by Z'-LYTE assay relative to control; details: Insect cell
[9] = system: HT-29; assay: Induction of apoptosis in human HT-29 cells assessed as increase in PARP cleavage at 0.3 to 3 micromol/L incubated for 48 hrs by Western blot analysis; assay type: functional, cell-based; details: dose 0.3-3 µmol/L
[10] = molecular target: Mitogen-activated protein kinase 10 (Homo sapiens) (UniProt P53779); assay: Inhibition of recombinant human full length GST-tagged MAPK10 expressed in insect cells at 2 uM using Ser/Thr 04 as substrate measured after 1 hr by Z'-LYTE assay relative to control; details: Insect cell
[11] = system: Tyrosine-protein kinase ABL1 (Homo sapiens), P00519 [G250E]; assay: Inhibition of recombinant human full-length His-tagged ABL1 G250E mutant expressed in insect cells at 2 uM using Tyr 02 as substrate measured after 1 hr by Z'-LYTE assay relative to control; details: Insect cell
[12] = molecular target: Epidermal growth factor receptor (Homo sapiens) (UniProt P00533); assay: Inhibition of recombinant human GST-tagged EGFR (668-1210 residues) expressed in insect cells at 2 uM using Tyr 04 as substrate measured after 1 hr by Z'-LYTE assay relative to control; details: Insect cell
[13] = molecular target: Protein kinase C delta type (Homo sapiens) (UniProt Q05655); assay: Inhibition of recombinant human full length GST-tagged PRKCD expressed in baculovirus expression system at 2 uM using Ser/Thr 07 as substrate measured after 1 hr by Z'-LYTE assay relative to control
[14] = system: MDA-MB-361; assay: Antitumor activity against human MDA-MB-361 cells xenografted in female nude mouse model assessed as substantial regression in tumor at 50 mg/kg, po qd administered as 5 days on/2 days off regimen for 4 cycles; assay type: functional, organism-based; details: time 28.0 day
[15] = molecular target: AMP-activated protein kinase (AMPK) alpha-1/beta-1/gamma-1 (Homo sapiens) (UniProt P54619+Q9Y478+Q13131); assay: Inhibition of recombinant human full-length GST/His-tagged AMPKalpha1/beta1/gamma1 expressed in insect cells at 2 uM using Ser/Thr 23 as substrate measured after 1 hr by Z'-LYTE assay relative to control; details: Insect cell
[16] = system: HCT-116; assay: Induction of apoptosis in human HCT-116 cells assessed as increase in PARP cleavage at 0.3 to 3 micromol/L incubated for 48 hrs by Western blot analysis; assay type: functional, cell-based; details: dose 0.3-3 µmol/L
[17] = molecular target: Serine/threonine-protein kinase MARK1 (Homo sapiens) (UniProt Q9P0L2); assay: Inhibition of recombinant human full length GST-tagged MARK1 expressed in baculovirus expression system at 2 uM using Ser/Thr 21 as substrate measured after 1 hr by Z'-LYTE assay relative to control
[18] = molecular target: Mitogen-activated protein kinase 1 (Homo sapiens) (UniProt P28482); assay: Inhibition of recombinant human full length GST-tagged MAPK1 expressed in E.coli at 2 uM using Ser/Thr 03 as substrate measured after 1 hr by Z'-LYTE assay relative to control
[19] = molecular target: Mitogen-activated protein kinase kinase kinase kinase 4 (Homo sapiens) (UniProt O95819); assay: Inhibition of recombinant human GST-tagged MAP4K4 (1-328 residues) expressed in insect cells at 2 uM using Ser/Thr 07 as substrate measured after 1 hr by Z'-LYTE assay relative to control; details: Insect cell
[20] = system: NCI-H1975; assay: Antiproliferative activity against human NCI-H1975 cells assessed as cell growth inhibition incubated for 24 hrs by MTS assay; assay type: functional, cell-based; details: NCI-H1975, 24 h
[21] = molecular target: Tyrosine-protein kinase Lyn (Homo sapiens) (UniProt P07948); assay: Inhibition of recombinant human full length His-tagged LYN B expressed in baculovirus expression system at 2 uM using Tyr 02 as substrate measured after 1 hr by Z'-LYTE assay relative to control
[22] = system: HCT-116; assay: Antitumor activity against human HCT-116 cells xenografted in female nude mouse model assessed as suppression in P-S6K at T389 level at 50 mg/kg, iv administered once a week and measured at least 8 hrs by immunoblot analysis; assay type: functional, organism-based
[23] = system: PC3MM2; assay: Antiproliferative activity against human PC3MM2 cells assessed as cell growth inhibition incubated for 24 hrs by MTS assay; assay type: functional, cell-based; details: PC3MM2, 24 h
[24] = molecular target: Fibroblast growth factor receptor 3 (Homo sapiens) (UniProt P22607); assay: Inhibition of recombinant human His-tagged FGFR3 (399-806 residues) expressed in insect cells at 2 uM using Tyr 04 as substrate measured after 1 hr by Z'-LYTE assay relative to control; details: Insect cell
[25] = molecular target: Tyrosine-protein kinase Fes/Fps (Homo sapiens) (UniProt P07332); assay: Inhibition of recombinant human full-length His-tagged FES expressed in baculovirus expression system at 2 uM using Tyr 01 as substrate measured after 1 hr by Z'-LYTE assay relative to control
Chain of Tyrosine-protein kinase Fes/Fps (Homo sapiens) (P07332 whole entry): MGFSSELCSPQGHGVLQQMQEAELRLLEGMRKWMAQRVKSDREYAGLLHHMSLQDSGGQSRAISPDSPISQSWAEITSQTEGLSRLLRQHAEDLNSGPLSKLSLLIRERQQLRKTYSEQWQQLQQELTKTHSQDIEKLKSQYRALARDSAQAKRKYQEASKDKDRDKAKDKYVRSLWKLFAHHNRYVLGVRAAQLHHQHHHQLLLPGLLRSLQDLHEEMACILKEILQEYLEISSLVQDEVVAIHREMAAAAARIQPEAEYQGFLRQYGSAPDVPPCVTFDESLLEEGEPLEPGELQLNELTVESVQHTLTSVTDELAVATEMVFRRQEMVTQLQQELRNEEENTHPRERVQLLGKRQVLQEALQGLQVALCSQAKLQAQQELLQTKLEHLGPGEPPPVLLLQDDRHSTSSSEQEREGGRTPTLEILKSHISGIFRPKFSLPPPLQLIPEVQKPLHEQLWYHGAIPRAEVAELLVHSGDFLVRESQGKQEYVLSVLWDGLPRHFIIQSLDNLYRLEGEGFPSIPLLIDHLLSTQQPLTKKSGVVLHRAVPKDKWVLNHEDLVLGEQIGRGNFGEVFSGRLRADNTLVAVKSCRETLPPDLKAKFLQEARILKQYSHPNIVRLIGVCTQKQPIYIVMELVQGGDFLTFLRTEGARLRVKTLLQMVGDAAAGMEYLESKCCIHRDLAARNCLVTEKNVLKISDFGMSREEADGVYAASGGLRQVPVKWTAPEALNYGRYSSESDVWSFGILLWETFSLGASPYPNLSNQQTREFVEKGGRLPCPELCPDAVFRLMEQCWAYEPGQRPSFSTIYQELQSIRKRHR

Chain of Serine/threonine-protein kinase D2 (Homo sapiens) (Q9BZL6 whole entry): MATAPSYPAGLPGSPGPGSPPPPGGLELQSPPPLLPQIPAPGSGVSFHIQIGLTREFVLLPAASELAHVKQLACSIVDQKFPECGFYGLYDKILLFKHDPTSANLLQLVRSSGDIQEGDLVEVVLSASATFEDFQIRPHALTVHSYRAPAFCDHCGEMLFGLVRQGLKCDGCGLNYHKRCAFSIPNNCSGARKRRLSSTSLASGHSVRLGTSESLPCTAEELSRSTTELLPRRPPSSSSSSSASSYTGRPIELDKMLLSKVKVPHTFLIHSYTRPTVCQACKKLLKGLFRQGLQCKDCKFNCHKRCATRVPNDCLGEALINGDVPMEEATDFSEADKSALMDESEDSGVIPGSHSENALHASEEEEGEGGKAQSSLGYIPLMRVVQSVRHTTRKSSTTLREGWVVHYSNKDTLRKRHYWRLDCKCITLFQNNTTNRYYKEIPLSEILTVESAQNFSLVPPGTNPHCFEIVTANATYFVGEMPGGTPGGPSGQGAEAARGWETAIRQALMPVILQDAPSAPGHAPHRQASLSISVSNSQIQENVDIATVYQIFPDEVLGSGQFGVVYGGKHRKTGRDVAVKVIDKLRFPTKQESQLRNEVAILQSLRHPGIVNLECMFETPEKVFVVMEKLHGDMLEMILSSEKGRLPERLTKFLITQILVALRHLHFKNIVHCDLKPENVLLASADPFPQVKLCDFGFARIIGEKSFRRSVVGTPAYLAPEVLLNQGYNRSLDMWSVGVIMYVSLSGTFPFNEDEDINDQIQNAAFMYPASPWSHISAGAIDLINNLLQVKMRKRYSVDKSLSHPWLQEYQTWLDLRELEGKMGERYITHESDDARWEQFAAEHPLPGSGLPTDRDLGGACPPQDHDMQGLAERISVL
Chain of Fibroblast growth factor receptor 3 (Homo sapiens) (P22607 23-806 limits assumed): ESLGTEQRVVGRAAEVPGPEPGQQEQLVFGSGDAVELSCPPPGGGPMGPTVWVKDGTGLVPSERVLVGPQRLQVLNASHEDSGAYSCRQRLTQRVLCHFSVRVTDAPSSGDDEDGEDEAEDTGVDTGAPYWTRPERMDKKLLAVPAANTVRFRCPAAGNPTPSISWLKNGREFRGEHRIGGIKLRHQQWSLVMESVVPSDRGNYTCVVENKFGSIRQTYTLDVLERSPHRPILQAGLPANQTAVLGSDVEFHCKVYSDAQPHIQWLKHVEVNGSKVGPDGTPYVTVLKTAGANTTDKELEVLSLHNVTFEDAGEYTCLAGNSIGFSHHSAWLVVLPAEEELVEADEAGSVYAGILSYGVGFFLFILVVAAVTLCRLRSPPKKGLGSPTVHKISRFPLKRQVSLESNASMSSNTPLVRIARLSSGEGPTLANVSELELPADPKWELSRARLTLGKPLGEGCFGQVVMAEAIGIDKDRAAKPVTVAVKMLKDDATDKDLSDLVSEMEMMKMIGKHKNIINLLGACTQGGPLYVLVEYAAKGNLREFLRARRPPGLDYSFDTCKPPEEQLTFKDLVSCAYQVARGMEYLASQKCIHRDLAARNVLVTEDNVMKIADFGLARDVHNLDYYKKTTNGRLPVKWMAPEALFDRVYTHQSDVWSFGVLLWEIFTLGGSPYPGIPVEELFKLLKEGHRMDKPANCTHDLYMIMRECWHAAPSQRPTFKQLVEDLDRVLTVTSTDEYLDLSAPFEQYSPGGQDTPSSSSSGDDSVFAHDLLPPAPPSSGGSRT
Chain of Mitogen-activated protein kinase 1 (Homo sapiens) (P28482 whole entry, the tested form may be a part): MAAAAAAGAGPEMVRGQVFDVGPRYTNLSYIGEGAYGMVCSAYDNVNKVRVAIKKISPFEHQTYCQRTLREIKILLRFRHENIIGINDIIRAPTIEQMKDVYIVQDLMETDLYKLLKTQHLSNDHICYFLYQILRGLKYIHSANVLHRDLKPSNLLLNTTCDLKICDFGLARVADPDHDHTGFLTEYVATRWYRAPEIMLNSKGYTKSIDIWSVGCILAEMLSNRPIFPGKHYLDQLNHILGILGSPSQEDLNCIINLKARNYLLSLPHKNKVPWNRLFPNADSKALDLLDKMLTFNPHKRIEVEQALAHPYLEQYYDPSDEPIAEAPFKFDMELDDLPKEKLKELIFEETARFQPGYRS
Chain of AMP-activated protein kinase (AMPK) alpha-1/beta-1/gamma-1 (Homo sapiens) (P54619 whole entry): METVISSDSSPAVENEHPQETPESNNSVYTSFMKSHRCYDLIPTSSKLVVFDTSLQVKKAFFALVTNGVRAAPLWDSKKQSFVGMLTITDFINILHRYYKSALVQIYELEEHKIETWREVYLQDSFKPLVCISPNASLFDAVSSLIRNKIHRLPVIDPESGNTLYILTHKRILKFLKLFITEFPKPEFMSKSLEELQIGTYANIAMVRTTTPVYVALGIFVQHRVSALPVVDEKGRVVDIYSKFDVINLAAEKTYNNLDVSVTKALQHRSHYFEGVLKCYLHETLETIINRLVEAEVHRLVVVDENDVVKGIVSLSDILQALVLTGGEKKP
Chain of AMP-activated protein kinase (AMPK) alpha-1/beta-1/gamma-1 (Homo sapiens) (Q13131 whole entry partner): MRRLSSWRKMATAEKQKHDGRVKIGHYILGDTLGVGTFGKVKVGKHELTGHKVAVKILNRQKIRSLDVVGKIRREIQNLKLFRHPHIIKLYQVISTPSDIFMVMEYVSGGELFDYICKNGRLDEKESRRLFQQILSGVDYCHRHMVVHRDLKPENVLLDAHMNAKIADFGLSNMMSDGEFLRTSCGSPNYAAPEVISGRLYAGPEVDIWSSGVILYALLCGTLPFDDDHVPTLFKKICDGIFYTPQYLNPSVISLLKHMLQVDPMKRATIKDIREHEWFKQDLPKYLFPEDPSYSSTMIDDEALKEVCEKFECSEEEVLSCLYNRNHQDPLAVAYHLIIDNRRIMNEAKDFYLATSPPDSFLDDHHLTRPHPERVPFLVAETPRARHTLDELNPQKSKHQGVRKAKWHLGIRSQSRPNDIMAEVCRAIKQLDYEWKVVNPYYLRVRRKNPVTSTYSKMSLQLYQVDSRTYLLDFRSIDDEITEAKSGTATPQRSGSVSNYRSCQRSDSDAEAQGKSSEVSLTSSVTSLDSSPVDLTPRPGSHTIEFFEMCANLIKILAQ
Chain of AMP-activated protein kinase (AMPK) alpha-1/beta-1/gamma-1 (Homo sapiens) (Q9Y478 2-270 partner limits assumed): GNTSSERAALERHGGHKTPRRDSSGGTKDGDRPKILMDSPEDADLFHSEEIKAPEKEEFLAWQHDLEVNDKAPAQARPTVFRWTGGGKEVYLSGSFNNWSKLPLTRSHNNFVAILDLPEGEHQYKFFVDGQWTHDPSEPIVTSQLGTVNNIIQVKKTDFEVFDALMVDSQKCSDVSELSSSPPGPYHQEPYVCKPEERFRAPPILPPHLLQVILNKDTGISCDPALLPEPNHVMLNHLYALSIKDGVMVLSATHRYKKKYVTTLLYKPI
Chain of Tyrosine-protein kinase Lyn (Homo sapiens) (P07948 2-512 limits assumed): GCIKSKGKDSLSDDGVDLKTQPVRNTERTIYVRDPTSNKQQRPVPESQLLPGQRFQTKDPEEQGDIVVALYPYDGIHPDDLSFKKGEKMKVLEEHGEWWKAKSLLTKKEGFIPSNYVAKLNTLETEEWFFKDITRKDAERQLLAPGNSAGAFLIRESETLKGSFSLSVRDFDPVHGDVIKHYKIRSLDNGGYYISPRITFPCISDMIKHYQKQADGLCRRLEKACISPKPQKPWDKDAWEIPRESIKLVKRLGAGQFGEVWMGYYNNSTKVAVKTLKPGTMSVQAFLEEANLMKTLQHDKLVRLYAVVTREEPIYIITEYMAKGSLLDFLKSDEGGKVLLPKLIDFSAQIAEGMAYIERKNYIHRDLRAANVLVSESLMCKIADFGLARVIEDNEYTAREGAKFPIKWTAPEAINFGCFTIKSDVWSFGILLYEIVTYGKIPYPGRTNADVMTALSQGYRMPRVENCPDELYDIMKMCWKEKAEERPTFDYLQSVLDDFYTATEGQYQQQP
Chain of Dual specificity protein kinase CLK2 (Homo sapiens) (P49760 whole entry, looked up, the tested form may be a part): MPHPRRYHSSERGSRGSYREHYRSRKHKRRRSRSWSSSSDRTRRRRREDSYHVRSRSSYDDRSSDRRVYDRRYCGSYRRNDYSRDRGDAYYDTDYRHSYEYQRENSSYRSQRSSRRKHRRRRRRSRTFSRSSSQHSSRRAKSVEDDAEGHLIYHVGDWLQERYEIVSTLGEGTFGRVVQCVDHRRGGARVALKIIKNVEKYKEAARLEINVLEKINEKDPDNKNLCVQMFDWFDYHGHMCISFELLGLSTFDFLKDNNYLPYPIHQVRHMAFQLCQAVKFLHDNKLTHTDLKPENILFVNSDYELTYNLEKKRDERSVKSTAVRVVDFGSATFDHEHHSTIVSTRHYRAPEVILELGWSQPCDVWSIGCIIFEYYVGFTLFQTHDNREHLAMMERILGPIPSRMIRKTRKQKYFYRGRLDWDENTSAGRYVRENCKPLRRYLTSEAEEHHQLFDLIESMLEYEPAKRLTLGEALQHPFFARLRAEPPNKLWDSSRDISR

CNC(=O)Nc1ccc(-c2nc(N3CC4CCC(C3)O4)c3cnn(C4CCC5(CC4)OCCO5)c3n2)cc1
inhibition [1]: 2%
inhibition [2]: -4%
Activity [3]: 35%
inhibition [4]: 0%
inhibition [5]: 7%
Activity [6]: Active
Activity [7]: Active
inhibition [8]: 1%
Activity [9]: inactive
inhibition [10]: 14%
inhibition [11]: 3%
inhibition [12]: 1%
inhibition [13]: 16%
Activity [14]: Active
inhibition [15]: 5%
Activity [16]: inactive
inhibition [17]: 13%
inhibition [18]: 0%
inhibition [19]: 10%
IC50 [20]: 70 nM
inhibition [21]: 5%
Activity [22]: Active
IC50 [23]: 2 nM
inhibition [24]: 5%
inhibition [25]: -1%
